Assay results reported in article PMC10447463, “Data-mining unveils structure–property–activity correlation of viral infectivity enhancing self-assembling peptides” (Nature Communications, 2023).
Where two headings read alike, the source gives them in different places.

Key:
[1] = format: physicochemical; conditions: for ThT Cat. / ThT-Fluorescence (categorical): ThT-active if fluorescence at least twice the control; for Rel. ThT: n-fold ThT fluorescence vs control (PBS, 10% DMSO), 4 µL 1 mg/mL fibrils + 20 µL 50 µM ThT, 15 min RT, ex 440 / em 488 nm, triplicate
In short: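 Fibrils (1 mg/mL solution) were mixed with 50 µM ThT in PBS for 15 min at RT, and fluorescence was read at λex 440/λem 488 nm against a PBS blank, as a triplicate mean ± SD. Zeta potential came from electrophoretic mobility (Smoluchowski) after 1 d aggregation at 1 mg/mL in PBS pH 7.4, diluted into 1 mM KCl.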

[2] = tested on: HIV-1 infection of TZM-bl cells; assay: HIV-1 infectivity enhancement assay, β-galactosidase luminescence; format: cell-based; conditions: for Rel-EFC: infection relative to EF-C (QCKIKQIINMWQ = 1); for Log10 Infection Rel EFC: log10 of infection relative to EF-C; for Log Infectivity: Log10 infection relative to EF-C, TZM-bl cells, asymmetric std dev errors; for Log10 Infection Rel EF-C: HIV-1 infection of TZM-bl cells; for Abs. Inf. / RLU s-1: absolute infection rate, peptide 1.3 µM on cells, virus preincubated 10 min with fibrils, read 3 days post infection, mean of triplicate; for Abs. Inf.: absolute infection signal, HIV-1 on TZM-bl cells, β-galactosidase luminescence; for Log10 Inf. rel. to EF-C: log10 of HIV-1 infection of TZM-bl cells relative to EF-C (EF-C = 0); for Log10 of Rel to EFC (Feb2021): Log10 of infection relative to EF-C, all peptides of FigS16
[3] = β-sheet content by ATR-FT-IR; format: physicochemical; conditions: for ß-sheet / %: ATR-FT-IR of lyophilised 1 mg/mL PNF solution, peak integral ratio 1625-1635 cm-1, measured once; for b -sheet / %: Fig. S7 panel A, β-sheet content by ATR-FT-IR
In short: (§1)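 Fluorescamine labelling (20 min RT, λex 365/λem 470 nm) of 3 kDa-MWCO filtrate and unfiltered fibril samples, redissolved in DMSO, gave conversion rate as 100 minus the percentage filtrate/original intensity, in triplicate. Secondary structure was quantified by ATR FT-IR on lyophilized 1 mg/mL fibrils, 64 scans.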

[4] = Conversion rate (CR) assay with fluorescamine; format: physicochemical; set-up: key to CR: % = 100−100×filtrate/original fluorescence intensity
In short: as §1

[5] = Fig. S7 panel A (plotted against β-sheet content)
[6] = Fig. S7 panel B (plotted against CR), rounded to two decimals
[7] = Log10 of infection rate relative to EF-C, Figure 3A source data
[8] = infection rate relative to EF-C, log10, data of Figure 2D
[9] = infection rate relative to EF-C, log10, source data of Figure 2C
[10] = HIV-1 infection relative to EF-C, Fig 23 plot, panels A and B, mean of 3 values
[11] = HIV-1 infection relative to EF-C, Fig 23 plot, single data point, replicate 1
[12] = HIV-1 infection relative to EF-C, Fig 23 plot, single data point, replicate 2
[13] = HIV-1 infection relative to EF-C, Fig 23 plot, single data point, replicate 3
[14] = n-fold infection vs virus only, relative to that of EF-C, 1.3 µM peptide
[15] = Fig. S7 panel B, conversion rate, fluorescamine assay
[16] = conversion of monomer to nanostructures, 3 kDa MWCO filtration, fluorescamine, ex 365 / em 470 nm, triplicate
[17] = conversion rate, fluorescamine assay

Sequence | Tht category (> 2 to blank = +) ([1]; Fig S10 panel D) | ThT Cat. ([1]; Fig S10 panel E) | Tht category (> 2 to blank = +) ([1]; FigS12 panel A) | ThT Cat, ([1]; FigS12 panel B) | ThT Cat, ([1]; ThT category, 1 if Rel. ThT >2) | ThT Cat. ([1]; ThT category, 1 if Rel. ThT >2) | ThT Cat. / ThT-Fluorescence (categorical) [1] | Rel. ThT [1] | Rel-EFC ([2]; 1.3 µM peptide) | Log10 Infection Rel EFC ([2]; 1.3 µM peptide) | Log Infectivity [2, 5] | Log Infectivity [2, 6] | Log10 Infection Rel EF-C [2, 7] | Log10 Infection Rel EF-C [2, 8] | Log10 Infection Rel EF-C [2, 9] | Abs. Inf. [2] | b -sheet / % [3] [%] | CR / % [4, 15] [%] | CR [4, 17] | Log10 Inf. rel. to EF-C [2] | other results
QCKAKAQANM | 0 (ThT-inactive (N-Fold <2)) | 0 (ThT-inactive (N-Fold <2)) | 0 (ThT-inactive (N-Fold <2)) | 0 (ThT-inactive (N-Fold <2)) | 0 (ThT-inactive (N-Fold <2)) | 0 (ThT-inactive (N-Fold <2)) | 0 (ThT-inactive (N-Fold <2)) | 1.4 | 0,01 | -1,83 | -1.835 | -1.83 | -1.83 | -1.835 | -1.835 | 563.3 | 35.27 | 55.9 | 55.94 |  | Inf. rel. EF-C [2, 10]: 0.02465; Inf. rel. EF-C [2, 11]: 0.03504; Inf. rel. EF-C [2, 12]: 0.01727; Inf. rel. EF-C [2, 13]: 0.02164; Abs. Inf. / RLU s-1 [2]: 563 RLU s-1; Inf. rel. EF-C [2, 14]: 0.01; ß-sheet / % [3]: 35%; CR / % [4, 16]: 56%
QCKAKAQANMWQ | 0 (ThT-inactive (N-Fold <2)) | 0 (ThT-inactive (N-Fold <2)) | 0 (ThT-inactive (N-Fold <2)) | 0 (ThT-inactive (N-Fold <2)) | 0 (ThT-inactive (N-Fold <2)) | 0 (ThT-inactive (N-Fold <2)) | 0 (ThT-inactive (N-Fold <2)) | 1.5 | 0,07 | -1,14 | -1.144 | -1.14 | -1.14 | -1.144 | -1.144 | 2767 | 32.8999 | 89.3 | 89.28 | -1.144 | Inf. rel. EF-C [2, 10]: 0.1207; Inf. rel. EF-C [2, 11]: 0.1632; Inf. rel. EF-C [2, 12]: 0.09951; Inf. rel. EF-C [2, 13]: 0.09928; Abs. Inf. / RLU s-1 [2]: 2767 RLU s-1; Inf. rel. EF-C [2, 14]: 0.07; ß-sheet / % [3]: 33%; CR / % [4, 16]: 89%
QCKFKQFFNM | 1 (ThT. Cat is 1, if Rel. ThT >2) | 1 (ThT. Cat is 1, if Rel. ThT >2) |  |  | 1 (ThT. Cat is 1, if Rel. ThT >2) | 1 (ThT. Cat is 1, if Rel. ThT >2) | 1 (ThT. Cat is 1, if Rel. ThT >2) |  | 0,43 | -0,37 | -0.3706 | -0.37 | -0.37 | -0.3706 | -0.3706 | 5847 | 41.8396 | 98.7 | 98.67 | -0.3706 | Log10 of Rel to EFC (Feb2021) [2]: -0.37
QCKFKQFFNMWQ | 1 (ThT. Cat is 1, if Rel. ThT >2) | 1 (ThT. Cat is 1, if Rel. ThT >2) |  |  | 1 (ThT. Cat is 1, if Rel. ThT >2) | 1 (ThT. Cat is 1, if Rel. ThT >2) | 1 (ThT. Cat is 1, if Rel. ThT >2) |  | 0,01 | -2,18 | -0.6059 | -0.61 | -0.61 | -0.6059 | -0.61 | 30896.66667 | 41.78 | 98.7 | 98.72 | -0.6059 | Log10 of Rel to EFC (Feb2021) [2]: -0.61
